# Test results taken from PMC6457909 (Science (New York, N.Y.), 2019).
# Key:
# [1] = Metabolic stability in liver microsomes; details: murine liver microsomes, versus earlier compounds
# [2] = system: H1N1 A/Brisbane/59/2007 HA; type: biochemical, influenza A virus; details: pH 5.25
# [3] = In vivo pharmacokinetics; design: species or system mouse; details: mice
# [4] = system: influenza A group 1 viruses; type: cell-based, influenza A virus
# [5] = system: H5 HA compared to H1 HA; type: binding, influenza A virus
# [6] = system: H1N1 A/PR/8/1934 virus; assay: Mouse influenza challenge, sublethal; type: in vivo; details: for survival: sublethal challenge (MLD90)
# [7] = system: H1N1 A/California/07/2009 (H1/Cal); type: cell-based, influenza A virus; details: read-out: virus neutralization EC50 for H1/Cal
# [8] = system: H1N1 A/PR/8/1934 virus; assay: Mouse influenza challenge, lethal; type: in vivo; details: for survival at day 21: lethal challenge 25x MLD
# [9] = system: MDCK cells; assay: Cell toxicity assay
# [10] = system: H1N1 A/PR/8/1934 virus in human bronchial epithelial cells (HBEC); assay: Viral neutralization assay in HBEC cultures; type: cell-based; details: 96 hours post-infection
# [11] = system: panel of pharmacologically relevant receptors, ion channels, and transporters; assay: In vitro selectivity profiling; type: binding; details: 10 µM
# [12] = Metabolic stability in liver microsomes; details: human liver microsomes, versus earlier compounds
# [13] = system: H1N1 A/New Caledonia/20/1999 (H1/NCa); type: cell-based, influenza A virus; details: read-out: virus neutralization EC50 for H1/NCa
# [14] = Kinetic solubility; details: versus earlier compounds
structure (smiles),measurement,setting,value
CC(=O)Nc1ccc2oc(-c3ccnc(C(=O)N4CCN([C@H](c5ccccc5)c5nnn(C)n5)CC4)c3)nc2c1 [JNJ4796],intrinsic clearance (in words),[1],significantly reduced
same,inhibition of low pH-induced HA conformational change,[2],dose-dependently prevents pH-induced transition of HA to the post-fusion conformation
same,half-life (t½),[3]; after oral administration,2.4 h
same,overall bioavailability,[3]; oral,30.0%
same,plasma concentration (Cmax),[3]; oral administration at 10 mg/kg,1152 ng/mL
same,breadth of virus neutralization,[4],heterosubtypic group 1 HA binding and virus neutralization breadth
same,decrease of binding affinity to H5 HA compared to H1 HA,[5],~ 25 fold
same,survival,[6]; 5 mg/kg twice daily oral,100%
same,survival,[6]; 15 mg/kg twice daily oral,100%
same,weight loss,"[6]; sublethal challenge, 15 and 5 mg/kg twice daily",only moderate weight loss effects
same,EC50,[7],66 nM
same,survival at day 21,[8]; 10 mg/kg twice daily oral,100%
same,survival at day 21,[8]; 50 mg/kg twice daily oral,100%
same,morbidity (animal weight loss),"[8]; lethal challenge, 50 and 10 mg/kg",only partly alleviated morbidity
same,cytotoxicity,[9],without cytotoxicity
same,viral titers,[10],dramatically reduced the viral titers
same,inhibition of off-targets,[11],does not substantially inhibit any of these potential off-targets
same,intrinsic clearance (in words),[12],significantly reduced
same,EC50,[13],38 nM
same,aqueous solubility (in words),[14],increased
